{"source": "patent US10307392B2", "about": "“Compound and method for treatment of diseases and disorders” (priority 2017, dated 2019)", "origin": "cited, not measured here", "key": {"[1]": {"system": "rat cortical neuron cultures exposed to toxic levels of the neurotransmitter, glutamate", "settings": "for prevention of glutamate toxicity: isolated or synthetic cannabinoid, in vitro neuronal cultures exposed to glutamate; for NMDA, AMPA and kainate receptor mediated neurotoxicity: not affected by cannabinoid receptor antagonist"}, "[2]": {"settings": "cyclic voltametry and fenton reaction-based system"}, "[3]": {"system": "PBQ-induced writhing in mice", "settings": "for reducing analgesia and inflammation: mouse, in vivo"}, "[4]": {"system": "females with severe somatoform and dysautonomic syndrome following HPV vaccination", "set-up": "dose or concentration left out as unconfirmed", "settings": "up to a maximum dose of CBD per day; 12 females"}, "Parkinson's disease": {"system": "Parkinson's disease", "settings": "oral, started with 150 mg/day, 4 weeks"}, "[5]": {"system": "subjects with noninsulin-treated type 2 diabetes"}, "spasticity": {"system": "spasticity", "settings": "in vivo"}, "[6]": {"system": "patients receiving Marinol"}, "MS patients": {"system": "MS patients", "settings": "13 weeks' follow-up"}}, "note": "Where two headings read alike, the source gives them in different places."}
{"smiles": "C=C(C)[C@@H]1CCC(C)=C[C@H]1c1c(O)cc(CCCCC)cc1O", "note": "[CBD, cannabidiol]", "values": [{"measurement": "protective capacity against glutamate toxicity, head to head with other antioxidants", "setting": "[1]", "result": "superior to both alpha-tocopherol and ascorbate"}, {"measurement": "prevention of glutamate toxicity", "setting": "[1]", "result": "prevented to some extent"}, {"measurement": "NMDA, AMPA and kainate receptor mediated neurotoxicity", "setting": "[1]", "result": "reduced"}, {"measurement": "hydroperoxide toxicity in neurons", "setting": "neuronal cultures", "result": "reduce hydroperoxide toxicity"}, {"measurement": "antioxidant activity", "setting": "[2]", "result": "potent antioxidants"}, {"measurement": "inhibition of PBQ-induced writhing", "setting": "[3]; oral administration, mice", "result": "most effective"}, {"measurement": "tolerability", "setting": "[4]", "result": "well tolerated"}, {"measurement": "adverse effect during the treatment", "setting": "Parkinson's disease", "result": "no adverse effect"}, {"measurement": "tolerability", "setting": "[5]; 200 mg CBD per day, 62 subjects in study", "result": "well tolerated"}]}
{"smiles": "CCCCCc1cc(O)c2c(c1)OC(C)(C)c1ccc(C)cc1-2", "note": "[CBN, cannabinol]", "values": [{"measurement": "reducing analgesia and inflammation", "setting": "[3]", "result": "least effective"}]}
{"smiles": "CCCCCCC(C)(C)c1cc(O)c2c(c1)OC(C)(C)C1CCC(=O)CC21", "note": "(stereo not shown) [Cesamet]", "values": [{"measurement": "reducing spasticity", "setting": "spasticity", "result": "positive results"}]}
{"smiles": "CCCCCc1cc(O)c2c(c1)OC(C)(C)[C@@H]1CCC(C)=C[C@@H]21", "note": "[Marinol]", "values": [{"measurement": "reducing spasticity", "setting": "spasticity", "result": "positive results"}, {"measurement": "patients reporting cannabinoid dose-related psychotropic effect", "setting": "[6]; antiemetic clinical trials", "result": 24, "unit": "%"}, {"measurement": "patients reporting a CNS adverse reaction", "setting": "[6]; during the first 2 weeks", "result": "About 25%"}, {"measurement": "patients reporting a CNS adverse reaction", "setting": "[6]; each week for the next 6 weeks", "result": "about 4%"}, {"measurement": "patients reporting cannabinoid dose-related psychotropic effect", "setting": "[6]; lower dose appetite stimulant clinical trials", "result": 8, "unit": "%"}, {"measurement": "patients reporting adverse experiences involving the CNS", "setting": "[6]; patients with AIDS, placebo-controlled clinical trials", "result": 33, "unit": "%"}]}
{"smiles": "CCCCCc1cc(O)c2c(c1)OC(C)(C)[C@@H]1CCC(C)=C[C@@H]21", "note": "[THC, delta-9-tetrahydrocannabinol]", "values": [{"measurement": "prevention of glutamate toxicity", "setting": "[1]", "result": "prevented to some extent"}, {"measurement": "NMDA, AMPA and kainate receptor mediated neurotoxicity", "setting": "[1]", "result": "reduced"}, {"measurement": "antioxidant activity", "setting": "[2]", "result": "potent antioxidants"}, {"measurement": "reducing analgesia and inflammation", "setting": "[3]", "result": "least effective"}, {"measurement": "Mean (SD) change in total Ashworth score (baseline minus follow-up)", "setting": "MS patients; placebo 0.92 (6.56)", "result": "1.86 (7.95)"}, {"measurement": "Mean (SD) change in Ashworth score, lower-body muscle groups", "setting": "MS patients; placebo 1.04 (4.20)", "result": "1.39 (5.21)"}, {"measurement": "Mean (SD) change in Ashworth score, upper-body muscle groups", "setting": "MS patients; placebo −0.11 (4.04)", "result": "0.48 (4.70)"}]}
{"smiles": "CCCc1cc(O)c2c(c1)OC(C)(C)[C@@H]1CCC(C)=C[C@@H]21", "note": "[THCV]", "values": [{"measurement": "tolerability", "setting": "[5]; 10 mg THCV per day", "result": "well tolerated"}]}
